Measured values as given in US9957268B2, “1H-pyrrolo[2,3,c]pyridin-7(6H)-ones and pyrazolo[3,4-c]pyridin-7(6H)-ones as inhibitors of BET proteins” (Incyte Corporation, priority 2014, dated 2018).
One block for each compound: values may come before it.

What was measured:
BRD4-BD1 = BRD4-BD1 (Homo sapiens (Human), UniProt O60885); assay: BRD4 AlphaScreen assay (BRD4-BD1); format: binding; details: biotin-labeled tetra-acetylated histone H4 peptide
Procedure: (§1) BRD4-BD1 and BRD4-BD2 assays were conducted in white 384-well polystyrene plate in a final volume of 40 μL for BD1 and 60 μL for BD2. Inhibitors were first serially diluted in DMSO and added to the plate wells before the addition of other reaction components. The final concentration of DMSO in the assay was 1.25% (BD1) and 0.83% (BD2). The assays were carried out at room temperature in the assay buffer (50 mM Tris-HCl, pH 7.5, 0.01% Tween-20, 0.01% BSA, 5 mM DTT), containing 50 nM Biotin-labeled tetra-acetylated histone H4 peptide (H4Ac4) and BRD4-BD1 or BRD4-BD2 protein at concentration less than 1 nM. The incubation for 75 min. was followed by the addition of 20 μL of assay buffer supplemented with Streptavidin donor beads (PerkinElmer 6760002) and GSH Acceptor beads (PerkinElmer-AL109C) at final concentration 2-4 μg/mL under reduced light. After plate sealing, the plate was incubated in the dark at room temperature for 75 min. before reading on a PHERAstar FS plate reader (BMG Labtech). IC50 determination was performed by fitting the curve of percent control activity versus the log of the inhibitor concentration using the GraphPad Prism 5.0 software.

BRD4-BD2 = BRD4-BD2 (Homo sapiens (Human), UniProt O60885); assay: BRD4 AlphaScreen assay (BRD4-BD2); format: binding; details: biotin-labeled tetra-acetylated histone H4 peptide
Procedure: as §1

Structure (SMILES): COc1cc2c(c(-c3cn(C)c(=O)c4[nH]ccc34)c1)OC(c1ccccc1)C(=O)N2 (single isomer, unassigned) [Example 24B, 6-methoxy-8-(6-methyl-7-oxo-6,7-dihydro-1H-pyrrolo[2,3-c]pyridin-4-yl)-2-phenyl-2H-1,4-benzoxazin-3(4H)-one]
IC50 (BRD4-BD1): ≤ 100 nM
IC50 (BRD4-BD2): ≤ 100 nM

Structure (SMILES): COc1cc(-c2cn(C)c(=O)c3[nH]ccc23)c2c(c1)N(C)CC(C(C)C)O2 (stereo not drawn) [Example 22, 4-(2-isopropyl-6-methoxy-4-methyl-3,4-dihydro-2H-1,4-benzoxazin-8-yl)-6-methyl-1,6-dihydro-7H-pyrrolo[2,3-c]pyridin-7-one]
IC50 (BRD4-BD1): 100 to 1000 nM
IC50 (BRD4-BD2): ≤ 100 nM

Structure (SMILES): COc1cc2c(c(-c3cn(C)c(=O)c4[nH]ccc34)c1)OC(c1ccccc1)C(=O)N2 (stereo not drawn) [Example 24, 6-methoxy-8-(6-methyl-7-oxo-6,7-dihydro-1H-pyrrolo[2,3-c]pyridin-4-yl)-2-phenyl-2H-1,4-benzoxazin-3(4H)-one]
IC50 (BRD4-BD1): ≤ 100 nM
IC50 (BRD4-BD2): ≤ 100 nM

Structure (SMILES): COc1cc2c(c(-c3cn(C)c(=O)c4[nH]ncc34)c1)OC(C1CCCC1)C(=O)N2 (stereo not drawn) [Example 42, 2-Cyclopentyl-6-methoxy-8-(6-methyl-7-oxo-6,7-dihydro-1H-pyrazolo[3,4-c]pyridin-4-yl)-2H-1,4-benzoxazin-3(4H)-one]
IC50 (BRD4-BD1): ≤ 100 nM
IC50 (BRD4-BD2): ≤ 100 nM

Structure (SMILES): CN1C(=O)C(C)(C)Oc2c(-c3cn(C)c(=O)c4[nH]ccc34)cc(S(C)(=O)=O)cc21 [Example 75, 2,2,4-trimethyl-8-(6-methyl-7-oxo-6,7-dihydro-1H-pyrrolo[2,3-c]pyridin-4-yl)-6-(methylsulfonyl)-2H-1,4-benzoxazin-3(4H)-one]
IC50 (BRD4-BD1): ≤ 100 nM
IC50 (BRD4-BD2): ≤ 100 nM

Structure (SMILES): CCS(=O)(=O)c1cc2c(c(-c3cn(C)c(=O)c4[nH]ccc34)c1)OC(C)(C)C(=O)N2 [Example 78, 6-(ethylsulfonyl)-2,2-dimethyl-8-(6-methyl-7-oxo-6,7-dihydro-1H-pyrrolo[2,3-c]pyridin-4-yl)-2H-1,4-benzoxazin-3(4H)-one]
IC50 (BRD4-BD1): ≤ 100 nM
IC50 (BRD4-BD2): ≤ 100 nM

Structure (SMILES): CC(C)C1Oc2c(cc(S(C)(=O)=O)cc2-c2cn(C)c(=O)c3[nH]ccc23)NC1=O (stereo not drawn) [Example 44, 2-isopropyl-8-(6-methyl-7-oxo-6,7-dihydro-1H-pyrrolo[2,3-c]pyridin-4-yl)-6-(methylsulfonyl)-2H-1,4-benzoxazin-3(4H)-one]
IC50 (BRD4-BD1): ≤ 100 nM
IC50 (BRD4-BD2): ≤ 100 nM

Structure (SMILES): CC(C)C1Oc2c(-c3cn(C)c(=O)c4[nH]ccc34)cc(S(=O)(=O)C(C)C)cc2N(C)C1=O (stereo not drawn) [Example 56, 2-isopropyl-6-(isopropylsulfonyl)-4-methyl-8-(6-methyl-7-oxo-6,7-dihydro-1H-pyrrolo[2,3-c]pyridin-4-yl)-2H-1,4-benzoxazin-3(4H)-one]
IC50 (BRD4-BD1): ≤ 100 nM
IC50 (BRD4-BD2): ≤ 100 nM

Structure (SMILES): COc1cc2c(c(-c3cn(C)c(=O)c4[nH]ncc34)c1)OC(C1CCCC1)C(=O)N2 (single isomer, unassigned) [Example 42A, 2-cyclopentyl-6-methoxy-8-(6-methyl-7-oxo-6,7-dihydro-1H-pyrazolo[3,4-c]pyridin-4-yl)-2H-1,4-benzoxazin-3(4H)-one]
IC50 (BRD4-BD1): ≤ 100 nM
IC50 (BRD4-BD2): ≤ 100 nM

Structure (SMILES): CN1C(=O)C(C)(C)Oc2c(-c3cn(C)c(=O)c4[nH]ccc34)cc(S(=O)(=O)N3CCCCC3)cc21 [Example 73, 2,2,4-trimethyl-8-(6-methyl-7-oxo-6,7-dihydro-1H-pyrrolo[2,3-c]pyridin-4-yl)-6-(piperidin-1-ylsulfonyl)-2H-1,4-benzoxazin-3(4H)-one]
IC50 (BRD4-BD1): ≤ 100 nM
IC50 (BRD4-BD2): ≤ 100 nM

Continued, values first:

IC50 (BRD4-BD1): ≤ 100 nM
IC50 (BRD4-BD2): ≤ 100 nM
Structure (SMILES): CC(C)C1Oc2c(-c3cn(C)c(=O)c4[nH]ccc34)cc(S(C)(=O)=O)cc2N(C)C1=O (stereo not drawn) [Example 47, 2-isopropyl-4-methyl-8-(6-methyl-7-oxo-6,7-dihydro-1H-pyrrolo[2,3-c]pyridin-4-yl)-6-(methylsulfonyl)-2H-1,4-benzoxazin-3(4H)-one]

IC50 (BRD4-BD1): ≤ 100 nM
IC50 (BRD4-BD2): ≤ 100 nM
Structure (SMILES): CC(C)C1Oc2c(cc(CO)cc2-c2cn(C)c(=O)c3[nH]ccc23)NC1=O (stereo not drawn) [Example 36, 6-(hydroxymethyl)-2-isopropyl-8-(6-methyl-7-oxo-6,7-dihydro-1H-pyrrolo[2,3-c]pyridin-4-yl)-2H-1,4-benzoxazin-3(4H)-one]

IC50 (BRD4-BD1): 100 to 1000 nM
IC50 (BRD4-BD2): 100 to 1000 nM
Structure (SMILES): COc1cc(-c2cn(C)c(=O)c3[nH]ccc23)c2c(c1)N(CC(=O)O)C(=O)C(C(C)C)O2 (stereo not drawn) [Example 11, [2-isopropyl-6-methoxy-8-(6-methyl-7-oxo-6,7-dihydro-1H-pyrrolo[2,3-c]pyridin-4-yl)-3-oxo-2,3-dihydro-4H-1,4-benzoxazin-4-yl]acetic acid]

IC50 (BRD4-BD1): ≤ 100 nM
IC50 (BRD4-BD2): ≤ 100 nM
Structure (SMILES): CC(C)C1Oc2c(cc(S(C)(=O)=O)cc2-c2cn(C)c(=O)c3[nH]ncc23)NC1=O (stereo not drawn) [Example 84, 2-isopropyl-8-(6-methyl-7-oxo-6,7-dihydro-1H-pyrazolo[3,4-c]pyridin-4-yl)-6-(methylsulfonyl)-2H-1,4-benzoxazin-3(4H)-one]

IC50 (BRD4-BD1): ≤ 100 nM
IC50 (BRD4-BD2): ≤ 100 nM
Structure (SMILES): CC(=O)NCc1cc2c(c(-c3cn(C)c(=O)c4[nH]ccc34)c1)OC(C(C)C)C(=O)N2 (stereo not drawn) [Example 40, N-{[2-isopropyl-8-(6-methyl-7-oxo-6,7-dihydro-1H-pyrrolo[2,3-c]pyridin-4-yl)-3-oxo-3,4-dihydro-2H-1,4-benzoxazin-6-yl]methyl}acetamide]

IC50 (BRD4-BD1): ≤ 100 nM
IC50 (BRD4-BD2): ≤ 100 nM
Structure (SMILES): COCc1cc2c(c(-c3cn(C)c(=O)c4[nH]ccc34)c1)OC(C(C)C)C(=O)N2 (stereo not drawn) [Example 37, 2-isopropyl-6-(methoxymethyl)-8-(6-methyl-7-oxo-6,7-dihydro-1H-pyrrolo[2,3-c]pyridin-4-yl)-2H-1,4-benzoxazin-3(4H)-one]

IC50 (BRD4-BD1): ≤ 100 nM
IC50 (BRD4-BD2): ≤ 100 nM
Structure (SMILES): CC(C)C1Oc2c(cc(C(=O)N3CCOCC3)cc2-c2cn(C)c(=O)c3[nH]ccc23)NC1=O (stereo not drawn) [Example 33, 2-isopropyl-8-(6-methyl-7-oxo-6,7-dihydro-1H-pyrrolo[2,3-c]pyridin-4-yl)-6-(morpholin-4-ylcarbonyl)-2H-1,4-benzoxazin-3(4H)-one]

IC50 (BRD4-BD1): ≤ 100 nM
IC50 (BRD4-BD2): ≤ 100 nM
Structure (SMILES): COc1cc2c(c(-c3cn(C)c(=O)c4[nH]ncc34)c1)OC(C(C)C)C(=O)N2 (stereo not drawn) [Example 26, 2-isopropyl-6-methoxy-8-(6-methyl-7-oxo-6,7-dihydro-1H-pyrazolo[3,4-c]pyridin-4-yl)-2H-1,4-benzoxazin-3(4H)-one]

IC50 (BRD4-BD1): ≤ 100 nM
IC50 (BRD4-BD2): ≤ 100 nM
Structure (SMILES): CC(C)C1Oc2c(-c3cn(C)c(=O)c4[nH]ccc34)cc(S(C)(=O)=O)cc2N(C)C1=O (single isomer, unassigned) [Example 47B, 2-isopropyl-4-methyl-8-(6-methyl-7-oxo-6,7-dihydro-1H-pyrrolo[2,3-c]pyridin-4-yl)-6-(methylsulfonyl)-2H-1,4-benzoxazin-3(4H)-one]

IC50 (BRD4-BD1): ≤ 100 nM
IC50 (BRD4-BD2): ≤ 100 nM
Structure (SMILES): CNS(=O)(=O)c1cc2c(c(-c3cn(C)c(=O)c4[nH]ccc34)c1)OC(C(C)C)C(=O)N2 (stereo not drawn) [Example 68, 2-isopropyl-N-methyl-8-(6-methyl-7-oxo-6,7-dihydro-1H-pyrrolo[2,3-c]pyridin-4-yl)-3-oxo-3,4-dihydro-2H-1,4-benzoxazine-6-sulfonamide]

IC50 (BRD4-BD1): ≤ 100 nM
IC50 (BRD4-BD2): ≤ 100 nM
Structure (SMILES): COc1cc2c(c(-c3cn(C)c(=O)c4[nH]ccc34)c1)OC(C(C)C)C(=O)N2 (single isomer, unassigned) [Example 9A, 2-isopropyl-6-methoxy-8-(6-methyl-7-oxo-6,7-dihydro-1H-pyrrolo[2,3-c]pyridin-4-yl)-2H-1,4-benzoxazin-3(4H)-one]
